Values quoted from earlier work in patent US5212175A, “Benzothiophenyl benzothiophenylalkyl-N-terminal amino hydroxy β-amino acid derivatives” (G. D. Searle & Co., priority 1991, dated 1993).
Square brackets hold non-standard residues; d marks the D form. Peptide text beside a SMILES is read from it. * marks the point of attachment. Sta = CC(C)C[C@H](N)[C@@H](O)CC(=O)O; Isovaleryl = CC(C)CC(=O)*

What was measured:
[1] = test system: pepsin; conditions: Umezawa et al, J. Antibiot. 1970
[2] = test system: cathepsin D; conditions: Umezawa et al, J. Antibiot. 1970
[3] = test system: renin; conditions: Umezawa et al, J. Antibiot. 1970
[4] = test system: hog renin; conditions: after the injection of hog renin into nephrectomized rats; Gross et al, Science 1971
[5] = stated in words as a disadvantage

Compound: CC(C)CC(=O)N[C@H](C(=O)N[C@H](C(=O)N[C@@H](CC(C)C)[C@@H](O)CC(=O)N[C@@H](C)C(=O)N[C@@H](CC(C)C)[C@@H](O)CC(=O)O)C(C)C)C(C)C [pepstatin] (Isovaleryl-VV[Sta]A[Sta]-OH)
- inhibitor of pepsin [1]: inhibitor
- inhibitor of cathepsin D [2]: inhibitor
- inhibitor of renin [3]: inhibitor
- reduce blood pressure in vivo [4]: reduce blood pressure
- solubility [5]: low solubility
